Format in all cases: biochemical
Common to all, as to conditions: recombinant human kinase domain, Caliper mobility shift

Experiment [1] addresses JAK2 (Homo sapiens (Human), UniProt O60674). Nature of the experiment: JAK Caliper enzyme assay at 1 mM ATP (JAK2). Here is the method:
(§1) Compounds of the invention were evaluated by in vitro methods to determine their respective ability to inhibit the JAK kinases (TYK2, JAK1, JAK2, JAK3).
(§2) The human JAK inhibitory activity was determined by using a microfluidic assay to monitor phosphorylation of a synthetic peptide by the recombinant human kinase domain of each of the four members of the JAK family, JAK1, JAK2, JAK3 and TYK2. […] Each assay condition was optimized for enzyme concentration and room temperature incubation time to obtain a conversion rate of 20% to 30% phosphorylated peptide product. Reactions were terminated by the addition of stop buffer containing EDTA. Utilizing the LabChip 3000 mobility shift technology (Caliper Life Science), each assay reaction was sampled to determine the level of phosphorylation. This technology is separation-based, allowing direct detection of fluorescently labeled substrates and products. Separations are controlled by a combination of vacuum pressure and electric field strength optimized for each peptide substrate.
(§3) JAK Caliper Enzyme Assay at 1 mM ATP
(§4) Compounds were added to a 384-well plate. Reaction mixtures contained 10 mM HEPES, pH 7.4, 10 mM MgCl2, 0.01% BSA, 0.0005% Tween 20, 1 mM ATP and 1 μM peptide substrate. […] The assays were initiated by the addition of 20 nM JAK1, 1 nM JAK2, 1 nM JAK or 1 nM TYK2 enzyme and were incubated at room temperature for three hours for JAK1, 60 minutes for JAK2, 75 minutes for JAK3 or 135 minutes for TYK2. Enzyme concentrations and incubation times were optimized for each new enzyme preps and were modified slightly over time to ensure 20% to 30% phosphorylation. The assays were stopped with 15 μL of 180 mM HEPES, pH 7.4, 20 mM EDTA, and 0.2% Coating Reagent 3. The assay plates were placed on a Caliper Life Science LC3000 instrument, and each well was sampled using appropriate separation conditions to measure the unphosphorylated and phosphorylated peptide.
(§5) The data was collected using the HTS Well Analyzer software from Caliper Life Sciences. The data output for data analysis is the percent product converted calculated on peak height (Equation 1). % product converted=100*((product)/(product+substrate)) Equation 1: […]
(§6) The percent effect at each compound concentration was calculated based on the positive and negative control well contained within each assay plate (Equation 2). […] The negative control wells contained DMSO alone (at the same concentration as the compound wells) that was used to set the baseline activity in the assay (i.e., uninhibited JAK1, JAK2, JAK3 or TYK2). % effect=100*((sample well−negative control)/(positive control-negative control)) Equation 2: The percent effect was plotted against the compound concentration compound.

Experiment [2] has as its target TYK2 (Homo sapiens (Human), UniProt P29597). Nature of the experiment: JAK Caliper enzyme assay at 1 mM ATP (TYK2). As for the experimental part: as §1, §2, §3, §4, §5, §6
The target of experiment [3] is JAK3 (Homo sapiens (Human), UniProt P52333). Nature of the experiment: JAK Caliper enzyme assay at 1 mM ATP (JAK3). Here is the method:
as §1, §2, §3, §4, §5, §6

Experiment [4] has as its target JAK1 (Homo sapiens (Human), UniProt P23458). Nature of the experiment: JAK Caliper enzyme assay at 1 mM ATP (JAK1). As for the experimental part:
Compounds of the invention were evaluated by in vitro methods to determine their respective ability to inhibit the JAK kinases (TYK2, JAK1, JAK2, JAK3). The human JAK inhibitory activity was determined by using a microfluidic assay to monitor phosphorylation of a synthetic peptide by the recombinant human kinase domain of each of the four members of the JAK family, JAK1, JAK2, JAK3 and TYK2. […] Reactions were terminated by the addition of stop buffer containing EDTA. Utilizing the LabChip 3000 mobility shift technology (Caliper Life Science), each assay reaction was sampled to determine the level of phosphorylation. This technology is separation-based, allowing direct detection of fluorescently labeled substrates and products. Separations are controlled by a combination of vacuum pressure and electric field strength optimized for each peptide substrate. […] Compounds were added to a 384-well plate. […] Enzyme concentrations and incubation times were optimized for each new enzyme preps and were modified slightly over time to ensure 20% to 30% phosphorylation. […] The assay plates were placed on a Caliper Life Science LC3000 instrument, and each well was sampled using appropriate separation conditions to measure the unphosphorylated and phosphorylated peptide. The data was collected using the HTS Well Analyzer software from Caliper Life Sciences. […] The percent effect at each compound concentration was calculated based on the positive and negative control well contained within each assay plate (Equation 2). […] The percent effect was plotted against the compound concentration compound. […] Where max is the maximum asymptote (complete inhibition), min is the minimum asymptote (no inhibition) and s is the slope factor.

Bounds are passed on as bounds.

What is called IC50 is the concentration that gives 50% inhibition.

Chain of JAK1 (P23458 875-1153): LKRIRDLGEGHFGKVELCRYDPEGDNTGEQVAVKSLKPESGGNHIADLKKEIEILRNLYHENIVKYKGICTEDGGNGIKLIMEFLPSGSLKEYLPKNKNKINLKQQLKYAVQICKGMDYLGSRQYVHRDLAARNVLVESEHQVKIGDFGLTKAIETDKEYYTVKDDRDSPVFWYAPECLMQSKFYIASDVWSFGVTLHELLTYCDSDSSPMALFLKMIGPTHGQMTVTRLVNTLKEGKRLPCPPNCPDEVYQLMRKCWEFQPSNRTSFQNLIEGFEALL
Chain of TYK2 (P29597 897-1176): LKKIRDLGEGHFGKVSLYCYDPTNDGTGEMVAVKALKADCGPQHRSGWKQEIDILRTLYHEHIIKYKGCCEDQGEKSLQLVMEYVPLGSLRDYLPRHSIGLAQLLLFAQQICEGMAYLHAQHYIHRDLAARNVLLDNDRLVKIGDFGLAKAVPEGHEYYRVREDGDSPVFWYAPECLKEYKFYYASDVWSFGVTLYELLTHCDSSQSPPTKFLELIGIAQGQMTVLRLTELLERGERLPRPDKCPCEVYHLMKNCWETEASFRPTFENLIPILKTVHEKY
Chain of JAK2 (O60674 849-1124): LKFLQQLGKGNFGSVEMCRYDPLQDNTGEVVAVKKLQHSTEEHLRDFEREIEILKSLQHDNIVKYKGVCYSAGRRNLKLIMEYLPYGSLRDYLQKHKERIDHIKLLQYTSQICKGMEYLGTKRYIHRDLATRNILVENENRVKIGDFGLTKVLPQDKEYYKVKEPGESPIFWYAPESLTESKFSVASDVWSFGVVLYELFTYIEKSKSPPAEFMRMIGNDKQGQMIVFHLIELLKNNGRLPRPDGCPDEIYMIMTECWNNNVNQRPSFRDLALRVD
Chain of JAK3 (P52333 822-1111): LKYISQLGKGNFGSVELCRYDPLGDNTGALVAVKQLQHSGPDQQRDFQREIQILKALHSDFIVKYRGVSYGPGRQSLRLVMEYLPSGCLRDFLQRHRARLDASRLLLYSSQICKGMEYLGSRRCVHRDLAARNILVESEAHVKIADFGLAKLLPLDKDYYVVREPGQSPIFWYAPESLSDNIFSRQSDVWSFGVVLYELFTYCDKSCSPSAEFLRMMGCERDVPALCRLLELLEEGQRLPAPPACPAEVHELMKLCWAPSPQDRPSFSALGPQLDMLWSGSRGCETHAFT

On to `Cc1cc2c(-c3cnn([C@]4(CC#N)C[C@@H](C#N)C4)c3)nc(-c3cnn(C)c3)cn2n1` [Example 36, (1r,3r)-3-(Cyanomethyl)-3-(4-(2-methyl-6-(1-methyl-1H-pyrazol-4-yl)pyrazolo[1,5-a]pyrazin-4-yl)-1H-pyrazol-1-yl)cyclobutane-1-carbonitrile], for which the IC50 in experiment [1] is 0.755 µM; in experiment [2], 1.6 µM; in experiment [3] it was more than 10 µM; in experiment [4] it was 3.52 µM.

With `CO[C@H]1C[C@](CC#N)(n2cc(-c3nc(-c4cn(C)nc4CO)cn4nccc34)cn2)C1` [Example 31, 2-((1r,3s)-1-(4-(6-(3-(Hydroxymethyl)-1-methyl-1H-pyrazol-4-yl)pyrazolo[1,5-a]pyrazin-4-yl)-1H-pyrazol-1-yl)-3-methoxycyclobutyl)acetonitrile], the IC50 in experiment [1] was 0.324 µM; in experiment [2] it was 0.038 µM; in experiment [3], more than 10 µM; in experiment [4], more than 9.86 µM.

As for `Cn1cc(-c2cn3nccc3c(-c3cnn([C@]4(CC#N)C[C@H](CC#N)C4)c3)n2)cn1` [Example 11, 2,2′-((1s,3s)-1-(4-(6-(1-Methyl-1H-pyrazol-4-yl)pyrazolo[1,5-a]pyrazin-4-yl)-1H-pyrazol-1-yl)cyclobutane-1,3-diyl)diacetonitrile], the IC50 is 0.038 µM in experiment [1], 0.008 µM in experiment [2], more than 6.17 µM in experiment [3] and 0.273 µM in experiment [4].

Take `CCC(=O)N1CC(CC#N)(n2cc(-c3nc(-c4cnn(C)c4)cn4nccc34)cn2)C1` [Example 10, 2-(3-(4-(6-(1-Methyl-1H-pyrazol-4-yl)pyrazolo[1,5-a]pyrazin-4-yl)-1H-pyrazol-1-yl)-1-propionylazetidin-3-yl)acetonitrile]: the IC50 was 1.6 µM in experiment [1], 0.58 µM in experiment [2], more than 10 µM in experiment [3] and 5.71 µM in experiment [4].

For `N#CC[C@]1(n2cc(-c3nc(-c4cc(C(N)=O)no4)cn4nccc34)cn2)C[C@H](C#N)C1` [Example 29, 5-(4-(1-((1r,3r)-3-Cyano-1-(cyanomethyl)cyclobutyl)-1H-pyrazol-4-yl)pyrazolo[1,5-a]pyrazin-6-yl)isoxazole-3-carboxamide], the IC50 in experiment [1] is 3.04 µM; in experiment [2], 0.352 µM; in experiment [3], more than 10 µM; in experiment [4], 3.93 µM.

Turning to `C[C@H]1N(CC(F)(F)F)C[C@]1(CC#N)n1cc(-c2nc(-c3cnn(C)c3)cn3nccc23)cn1` [Example 17, 2-((2R,3S)-2-Methyl-3-(4-(6-(1-methyl-1H-pyrazol-4-yl)pyrazolo[1,5-a]pyrazin-4-yl)-1H-pyrazol-1-yl)-1-(2,2,2-trifluoroethyl)azetidin-3-yl)acetonitrile], the half-maximal inhibitory concentration (IC50) in experiment [1] is 0.205 µM; in experiment [2], 0.035 µM; in experiment [3], 10 µM; in experiment [4] it was 1.73 µM.

Regarding `CCN1CC(CC#N)(n2cc(-c3nc(-c4cc(CO)[nH]n4)cn4nccc34)cn2)C1` [Example 3, 2-(1-Ethyl-3-(4-(6-(5-(hydroxymethyl)-1H-pyrazol-3-yl)pyrazolo[1,5-a]pyrazin-4-yl)-1H-pyrazol-1-yl)azetidin-3-yl)acetonitrile], the IC50 was 0.064 µM in experiment [2] and 2.29 µM in experiment [4].

With `Cn1cc(-c2cn3nccc3c(-c3cnn(C4(CC#N)CN(S(C)(=O)=O)C4)c3)n2)cn1` [Example 8, 2-(3-(4-(6-(1-Methyl-1H-pyrazol-4-yl)pyrazolo[1,5-a]pyrazin-4-yl)-1H-pyrazol-1-yl)-1-(methylsulfonyl)azetidin-3-yl)acetonitrile], the IC50 in experiment [2] was 0.011 µM; in experiment [3], more than 9.28 µM; in experiment [4], 0.265 µM.

Regarding `Cn1cc(-c2cn3nccc3c(-c3cnn(C4(CC#N)CN(S(=O)(=O)C5CC5)C4)c3)n2)cn1` [Example 9, 2-(1-(Cyclopropylsulfonyl)-3-(4-(6-(1-methyl-1H-pyrazol-4-yl)pyrazolo[1,5-a]pyrazin-4-yl)-1H-pyrazol-1-yl)azetidin-3-yl)acetonitrile], the IC50 was 0.049 µM in experiment [1], 0.008 µM in experiment [2], more than 10 µM in experiment [3] and 0.185 µM in experiment [4].

Consider `Cn1cc(-c2cn3nccc3c(-c3cnn([C@]4(CC#N)C[C@@H](C#N)C4)c3)n2)c(=O)[nH]1` [Example 37, (1r,3r)-3-(Cyanomethyl)-3-(4-(6-(1-methyl-3-oxo-2,3-dihydro-1H-pyrazol-4-yl)pyrazolo[1,5-a]pyrazin-4-yl)-1H-pyrazol-1-yl)cyclobutane-1-carbonitrile], for which the IC50 is 0.166 µM in experiment [1], 0.032 µM in experiment [2], more than 10 µM in experiment [3] and 3.49 µM in experiment [4].

Turning to `CO[C@H]1C[C@](CC#N)(n2cc(-c3nc(-c4cc(NC(C)=O)[nH]n4)cn4nccc34)cn2)C1` [Example 5, N-(3-(4-(1-((1r,3s)-1-(Cyanomethyl)-3-methoxycyclobutyl)-1H-pyrazol-4-yl)pyrazolo[1,5-a]pyrazin-6-yl)-1H-pyrazol-5-yl)acetamide], the half-maximal inhibitory concentration (IC50) was 0.035 µM in experiment [2], more than 10 µM in experiment [3] and 1.92 µM in experiment [4].

On to `CO[C@H]1C[C@](CC#N)(n2cc(-c3nc(-c4cnn(C)c4)cn4nccc34)cn2)C1` [Example 15, 2-((1r,3s)-3-Methoxy-1-(4-(6-(1-methyl-1H-pyrazol-4-yl)pyrazolo[1,5-a]pyrazin-4-yl)-1H-pyrazol-1-yl)cyclobutyl)acetonitrile], for which the 50% inhibitory concentration (IC50) in experiment [1] was 0.228 µM; in experiment [3], more than 9.12 µM; in experiment [4] it was 1.5 µM.

As for `CO[C@H]1C[C@@](CC#N)(n2cc(-c3nc(-c4cnn(C)c4)cn4nccc34)cn2)C1` [Example 16, 2-((1s,3r)-3-Methoxy-1-(4-(6-(1-methyl-1H-pyrazol-4-yl)pyrazolo[1,5-a]pyrazin-4-yl)-1H-pyrazol-1-yl)cyclobutyl)acetonitrile], the IC50 was 0.099 µM in experiment [1], 10 µM in experiment [3] and 0.664 µM in experiment [4].

On to `CNC(=O)c1cc(-c2cn3nccc3c(-c3cnn([C@]4(CC#N)C[C@@H](OC)C4)c3)n2)[nH]n1` [Example 6, 5-(4-(1-((1r,3s)-1-(Cyanomethyl)-3-methoxycyclobutyl)-1H-pyrazol-4-yl)pyrazolo[1,5-a]pyrazin-6-yl)-N-methyl-1H-pyrazole-3-carboxamide], for which the concentration for half-maximal inhibition (IC50) was 0.5 µM in experiment [1] and more than 10 µM in experiment [3].

`Cn1cc(-c2cn3nccc3c(-c3cnn([C@]4(CC#N)C[C@H](O)C4)c3)n2)cn1` [Example 13, 2-((1s,3r)-3-Hydroxy-1-(4-(6-(1-methyl-1H-pyrazol-4-yl)pyrazolo[1,5-a]pyrazin-4-yl)-1H-pyrazol-1-yl)cyclobutyl)acetonitrile]: the half-inhibitory concentration (IC50) is 0.149 µM in experiment [2], more than 10 µM in experiment [3] and 3.23 µM in experiment [4].

As for `Cn1cc(-c2cn3nccc3c(-c3cnn([C@]4(CC#N)C[C@@H](O)C4)c3)n2)cn1` [Example 14, 2-((1r,3s)-3-Hydroxy-1-(4-(6-(1-methyl-1H-pyrazol-4-yl)pyrazolo[1,5-a]pyrazin-4-yl)-1H-pyrazol-1-yl)cyclobutyl)acetonitrile], the half-inhibitory concentration (IC50) is 0.081 µM in experiment [2], more than 10 µM in experiment [3] and 1.06 µM in experiment [4].

Source of the values: patent publication US10144738B2, “Pyrazolo[1,5-A]PYRAZIN-4-YL derivatives” (Pfizer Inc., priority 2016, dated 2018).
